Measured values: ChEMBL document CHEMBL1122972, “Angiotensin-converting enzyme inhibitors: synthesis and biological activity of acyl tripeptide analogues of enalapril” (J Med Chem, 1985)
Square brackets hold non-standard residues; d marks the D form. Peptide text beside a SMILES is read from it. * marks the point of attachment. Hydrocinnamoyl = O=C(CCc1ccccc1)*; pGlu = O=C1CC[C@@H](C(=O)O)N1; Bz = O=C(c1ccccc1)*

Target: Angiotensin-converting enzyme (Homo sapiens, UniProt P12821)
Test: In vitro inhibitory activity against Angiotensin I converting enzyme
Conditions: read-out: I50

Chain of Angiotensin-converting enzyme (P12821 whole entry): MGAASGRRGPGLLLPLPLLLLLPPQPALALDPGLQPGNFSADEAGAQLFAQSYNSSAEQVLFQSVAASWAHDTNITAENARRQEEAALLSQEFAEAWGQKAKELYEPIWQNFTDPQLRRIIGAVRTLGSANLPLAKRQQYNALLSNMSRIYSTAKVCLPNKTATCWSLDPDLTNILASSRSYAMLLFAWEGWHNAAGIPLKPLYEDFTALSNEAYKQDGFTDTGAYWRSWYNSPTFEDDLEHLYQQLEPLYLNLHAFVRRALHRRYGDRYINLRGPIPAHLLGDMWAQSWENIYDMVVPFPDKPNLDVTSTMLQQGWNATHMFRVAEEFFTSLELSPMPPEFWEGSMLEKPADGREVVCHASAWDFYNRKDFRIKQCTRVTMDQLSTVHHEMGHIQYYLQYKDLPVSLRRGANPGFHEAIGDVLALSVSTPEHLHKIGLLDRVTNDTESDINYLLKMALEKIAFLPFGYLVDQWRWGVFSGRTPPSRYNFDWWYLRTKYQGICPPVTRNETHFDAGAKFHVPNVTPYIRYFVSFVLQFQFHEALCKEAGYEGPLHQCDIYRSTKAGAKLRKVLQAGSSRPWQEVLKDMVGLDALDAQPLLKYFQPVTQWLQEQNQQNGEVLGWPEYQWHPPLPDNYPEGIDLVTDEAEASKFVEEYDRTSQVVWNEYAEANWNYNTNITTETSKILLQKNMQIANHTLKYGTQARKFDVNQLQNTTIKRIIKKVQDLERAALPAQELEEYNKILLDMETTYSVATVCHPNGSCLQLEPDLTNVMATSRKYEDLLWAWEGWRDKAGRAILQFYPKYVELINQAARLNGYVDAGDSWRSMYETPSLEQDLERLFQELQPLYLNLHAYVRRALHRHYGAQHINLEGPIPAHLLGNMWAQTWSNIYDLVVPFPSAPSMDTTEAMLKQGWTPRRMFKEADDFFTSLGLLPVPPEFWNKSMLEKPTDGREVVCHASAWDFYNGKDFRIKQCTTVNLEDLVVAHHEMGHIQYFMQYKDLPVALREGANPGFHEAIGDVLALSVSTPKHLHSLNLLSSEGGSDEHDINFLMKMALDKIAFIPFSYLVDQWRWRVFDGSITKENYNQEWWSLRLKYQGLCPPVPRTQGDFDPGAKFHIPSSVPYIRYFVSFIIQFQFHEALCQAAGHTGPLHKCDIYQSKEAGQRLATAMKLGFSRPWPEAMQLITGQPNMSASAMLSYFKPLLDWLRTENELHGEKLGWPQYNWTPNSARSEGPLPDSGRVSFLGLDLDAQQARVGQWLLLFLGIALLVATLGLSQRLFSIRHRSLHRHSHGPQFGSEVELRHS

IC50 | SMILES
0.7 µM | C[C@H](N[C@H](C(=O)O)[C@@H]1CCCN1)C(=O)N1CCC[C@H]1C(=O)O
1.4 µM | C[C@H](NC(=O)[C@@H](N)Cc1ccccc1)C(=O)N1CCC[C@H]1C(=O)O (H-Phe-Ala-Pro-OH)
5 µM | C[C@H](NC(=O)[C@H](Cc1ccccc1)NC(=O)[C@H](CCCCN)NC(=O)[C@@H]1CCC(=O)N1)C(=O)N1CCC[C@H]1C(=O)O ([pGlu]KFAP-OH)
0.0094 µM | CC(=O)N1CCCC1C(NC(C)C(=O)N1CCCC1C(=O)O)C(=O)O (centres undefined)
330 µM | C[C@H](NC(=O)CCc1ccccc1)C(=O)N1CCC[C@H]1C(=O)O (Hydrocinnamoyl-Ala-Pro-OH)
2600 µM | O=C(CCC(=O)N1CCCC1C(=O)O)CCc1ccccc1 (centres undefined)
0.0077 µM | C[C@H](N[C@H](C(=O)O)[C@H](Cc1ccccc1)NC(=O)c1ccccc1)C(=O)N1CCC[C@H]1C(=O)O
1.4 µM | C[C@H](N[C@@H](C(=O)O)[C@H](Cc1ccccc1)NC(=O)c1ccccc1)C(=O)N1CCC[C@H]1C(=O)O
0.017 µM | C[C@H](N[C@@H](CNC(=O)c1ccccc1)C(=O)O)C(=O)N1CCC[C@H]1C(=O)O
0.04 µM | C[C@H](NC(CNC(=O)c1ccccc1)C(=O)O)C(=O)N1CCC[C@H]1C(=O)O (some centres undefined)
0.003 µM | C[C@H](N[C@@H](C[C@H](Cc1ccccc1)NC(=O)c1ccccc1)C(=O)O)C(=O)N1CCC[C@H]1C(=O)O
2.7 µM | C[C@H](NC(=O)[C@H](Cc1ccccc1)NC(=O)c1ccccc1)C(=O)N1CCC[C@H]1C(=O)O (Bz-Phe-Ala-Pro-OH)
0.0048 µM | C[C@H](N[C@H](C[C@H](Cc1ccccc1)NC(=O)c1ccccc1)C(=O)O)C(=O)N1CCC[C@H]1C(=O)O
0.0029 µM | CC(NC(C(=O)O)C1CCCN1C(=O)c1ccccc1)C(=O)N1CCCC1C(=O)O (centres undefined)
